# Experiments:
# human erythrocytes = assay: Hemolysis test on human red blood cells; type: cell-based; conditions: for HC50: PBS pH 7.2, 37 °C, mean ± SD; for HC50 / concentration up to which not hemolytic: 10 min
# Procedure: Hemolysis test was performed on fresh human blood. Erythrocytes were separated from citrated blood by centrifugation at 2500× g for 10 min.; washed three times with PBS and resuspended in the same solution. Aliquots of the cell suspension with the respective red blood cell number of 5 × 10^7 were added to the buffer solution (PBS pH 7.2) containing increasing concentrations of the samples investigated in the study. After mixing them gently, each solution was incubated at 37 °C for 10 min and then centrifuged at 5000× g. Finally, the absorbance of the hemoglobin released into the supernatant was measured at 540 nm with a FLUOstar OPTIMA Microplate Reader. The percentage of hemolysis was expressed as the ratio of hemoglobin in the supernatant of the sample solutions related to the hemoglobin concentration after the complete hemolysis of erythrocytes in water. The dose-response curve was determined, and the concentration inducing hemolysis in 50% of the erythrocyte population (HC50) was subsequently calculated.
# Caco-2 cells [1] = assay: MTT cell viability assay on Caco-2 cells; type: cell-based, human; conditions: for IC50: 30 min incubation at 37 °C in PBS, mean ± SD; for concentration up to which no toxic effect (MTT): 30 min
# Procedure: (§1) Caco-2 cell line was obtained from the European Collection of Cell Cultures (ECACC). Cells were grown in plastic cell culture flasks in Dulbecco’s Modified Eagle’s Medium supplemented with 3.7 g/L NaHCO3, 10% (v/v) heat-inactivated fetal bovine serum (FBS), 1% (v/v) non-essential amino acids solution, 1% (v/v) L-glutamine, 100 IU/mL penicillin, and 100 µg/mL streptomycin at 37 °C in an atmosphere of 5% CO2. The cells were routinely maintained by regular passaging. For cytotoxic and transport experiments, cells were used between passage numbers 20 and 40. The culture media were replaced with fresh media in every 72 h.
# The MTT assay was performed on Caco-2 cells. The cells were seeded in 96 well plates until the cell monolayer become confluent. The medium was changed once. After one week the medium was removed, the cells were washed with PBS and exposed to increasing concentrations of α-CDs dissolved in phosphate buffer saline (PBS). Cells were incubated for 30 min on 37 °C. Control groups were processed equally and incubated without CD simultaneously. After treatment MTT dye (3-(4,5-dimethylthiazol-2-yl))-2,5-diphenyltetrazolium bromide, 5 mg/mL) was applied to each well for 3 h. MTT solution was removed and isopropanol-hydrochloric acid (25:1) was added to dissolve the formed formazan crystals. The absorbance was measured at 570 nm against a 690 nm reference with a FLUOstar OPTIMA Microplate Reader. Cell viability was expressed as the percentage of untreated control.
# Caco-2 cells [2] = assay: Real-time cell electronic sensing (RT-CES) on Caco-2 cells; type: cell-based, human; conditions: for IC50: up to 8 h treatment, impedance cell index; for concentration up to which non-toxic (RT-CES): up to 8 h; for toxicity by RT-CES, result in words: prolonged exposition time (up to 8 h) versus 30 min MTT
# Procedure: as §1
# Real-time cell electronic sensing (RT-CES) is a label-free technique for dynamic monitoring of living cells. The xCELLigence system (Roche, Basel, Switzerland) utilizes an electronic readout called impedance to non-invasively quantify adherence cell proliferation and viability. E-plates (Roche) contain gold microelectronic sensor arrays. The interaction between cells and the electrode generates impedance response that correlates linearly with cell index reflecting cell number, adherence and cell growth. This method is more sensitive and informative than colorimetric end-point assays to test pharmaceutical excipients.
# The E-plate was coated with 0.2% rat tail collagen–DW solution for 20 min at 37 °C. Culture media (60 μL) was added to each well for background readings than 100 µL Caco-2 cell suspension was dispensed at the density of 1.5 × 10^4 cells/well. The cells were grown for 2 days. The medium was changed to excipients solutions and the cells in the E-plate were kept in an incubator at 37 °C for 8 h and monitored every 5 min.
# The cell index at each time point was defined as (Rn − Rb)/15, where Rn is the cell-electrode impedance of the well when it contains cells and Rb is the background impedance of the well with the media alone.
# [3] = Solubility of the samples in isotonic PBS; type: physicochemical; conditions: isotonic phosphate buffered saline (PBS)
# Procedure: α-Cyclodextrin derivatives were generously offered by Cyclolab Ltd. (Cyclodextrin Research & Development Laboratory, Budapest, Hungary). […] We investigated each α-CD in 7 different concentrations: 0.01; 0.1; 1; 10; 25; 50 and 100 mM, with the exception of TRIMEA, which was not soluble above 30 mM. The solid samples were dissolved in isotonic phosphate buffered saline (PBS), purchased from Sigma–Aldrich (Budapest, Hungary) (Table 2.)
Molecule,HC50 (human erythrocytes),IC50 (Caco-2 cells [1]),IC50 (Caco-2 cells [2]),concentration up to which no toxic effect (MTT) (Caco-2 cells [1]),also measured
"COC[C@H]1O[C@@H]2O[C@@H]3[C@@H](OC)[C@@H](OC)[C@@H](O[C@@H]4[C@@H](OC)[C@@H](OC)[C@@H](O[C@@H]5[C@@H](OC)[C@@H](OC)[C@@H](O[C@@H]6[C@@H](OC)[C@@H](OC)[C@@H](O[C@@H]7[C@@H](OC)[C@@H](OC)[C@@H](O[C@@H]1[C@@H](OC)[C@H]2OC)O[C@@H]7COC)O[C@@H]6COC)O[C@@H]5COC)O[C@@H]4COC)O[C@@H]3COC [TRIMEA, hexakis-(2,3,6-tri-O-methyl)-α-CD]",1.9 ± 0.01 mM,1.8 ± 0.8 mM,> 1 mM,,solubility limit [3]: ≤ 30 mM
"OC[C@H]1O[C@@H]2O[C@H]3[C@H](O)[C@@H](O)[C@@H](O[C@H]4[C@H](O)[C@@H](O)[C@@H](O[C@H]5[C@H](O)[C@@H](O)[C@@H](O[C@H]6[C@H](O)[C@@H](O)[C@@H](O[C@H]7[C@H](O)[C@@H](O)[C@@H](O[C@H]1[C@H](O)[C@H]2O)O[C@@H]7CO)O[C@@H]6CO)O[C@@H]5CO)O[C@@H]4CO)O[C@@H]3CO [native, α-cyclodextrin]",16.0 ± 0.02 mM,,,,"HC50 (human erythrocytes; listed as Native α-CD): 16 mM; IC50 (Caco-2 cells [1]; Homo sapiens, 0.5 h): 46.1 ± 9.2 mM; IC50 (Caco-2 cells [2]; Homo sapiens): > 25 mM"
(2-hydroxy) propyl α-CD [HPACD],>100 mM,> 100 mM,> 100 mM,> 100000 µM,concentration up to which not hemolytic (human erythrocytes): > 100000 µM; HC50 (human erythrocytes; listed as Hydroxypropyl): > 100 mM; concentration up to which non-toxic (RT-CES) (Caco-2 cells [2]): > 100000 µM
acetylated α-CD [AcACD],>100 mM,> 100 mM,> 100 mM,> 100000 µM,concentration up to which not hemolytic (human erythrocytes): > 100000 µM; HC50 (human erythrocytes; listed as acetyl): > 100 mM; concentration up to which non-toxic (RT-CES) (Caco-2 cells [2]): > 100000 µM
carboxymethylated α-CD sodium salt [CMACD],>100 mM,> 100 mM,,> 100000 µM,"HC50 (human erythrocytes; listed as carboxymethylated): > 100 mM; toxicity by RT-CES, result in words (Caco-2 cells [2]): toxic when the exposition time was prolonged"
phosphated α-CD sodium salt,>100 mM,7.8 ± 8.6 mM,,,"hemolysis, result in words (human erythrocytes): did not result in hemolysis"
randomly methylated α-CD [RAMEA],15.5 ± 0.01 mM,78.6 ± 15.8 mM,,,
succinylated α-CD [SuACD],9.6 ± 0.03 mM,19 ± 8.8 mM,> 1 mM,,
sulfated α-CD,>100 mM,> 100 mM,,> 100000 µM,"toxicity by RT-CES, result in words (Caco-2 cells [2]): toxic when the exposition time was prolonged"

# — PMC6332255, “Evaluation of the Cytotoxicity of α-Cyclodextrin Derivatives on the Caco-2 Cell Line and Human Erythrocytes” (Molecules, 2015)
